Measurements from ChEMBL document CHEMBL1152493, “CoMFA and docking studies of 2-phenylindole derivatives with anticancer activity” (Eur J Med Chem, 2009).

System: MDA-MB-231
Test: Cytotoxicity against human MDA-MB-231 cells
Assay type: functional, cell-based

Structure (SMILES) | IC50 (read-out: IC50) [nM] | IC50 (read-out: pIC50 (converted)) [nM]
COc1ccc2c(C=O)c(-c3ccccc3)[nH]c2c1 | 240 | 240
COc1ccc(-c2[nH]c3cc(OC)c(OC)cc3c2C=O)cc1 | 220 | 220
CCC(C)c1ccc2[nH]c(-c3ccc(OC)cc3)c(C=O)c2c1 (stereo unspecified) | 72 | 71.9
